{"source": "paper PMC3606385", "about": "(PLoS ONE, 2013)", "key": {"hyperglycemic KKAy mouse": {"tested_on": "hyperglycemic KKAy mouse", "design": "method as in PMID 12190302", "conditions": "hyperglycemic KKAy mouse model; cited from earlier work"}, "mouse 11β-HSD1": {"tested_on": "mouse 11β-HSD1", "conditions": "cited from earlier work"}, "Human 11β-HSD2 [1]": {"biological_target": "T1, Human 11β-HSD2 (Homo sapiens, UniProt P80365)", "T1 construct": "The rat and human kidney microsomes were used for 11β-HSD2 sources; tissue Gentest (Woburn, MA); host or cells: human kidney microsomes", "T1 sequence (P80365 1-405)": "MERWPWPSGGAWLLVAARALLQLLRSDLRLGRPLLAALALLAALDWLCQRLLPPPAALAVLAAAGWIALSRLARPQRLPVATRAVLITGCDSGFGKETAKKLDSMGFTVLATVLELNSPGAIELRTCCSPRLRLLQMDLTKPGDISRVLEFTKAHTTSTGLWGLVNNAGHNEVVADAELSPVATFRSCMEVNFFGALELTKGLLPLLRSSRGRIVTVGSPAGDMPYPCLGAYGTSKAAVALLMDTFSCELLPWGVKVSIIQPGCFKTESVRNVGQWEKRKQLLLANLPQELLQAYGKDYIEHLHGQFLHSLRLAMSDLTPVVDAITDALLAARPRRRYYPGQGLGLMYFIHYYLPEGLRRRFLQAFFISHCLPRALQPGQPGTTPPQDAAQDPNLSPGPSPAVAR", "conditions": "cited from earlier work"}, "mouse 11β-HSD2": {"tested_on": "mouse 11β-HSD2", "design": "method as in PMID 16103409", "conditions": "cited from earlier work"}, "Human 11β-HSD1 [2]": {"biological_target": "T2, Human 11β-HSD1 (Homo sapiens, UniProt P28845)", "T2 construct": "expressed in transfected cells; host or cells: CHOP cells (transient, FuGENE)", "T2 sequence (P28845 whole entry)": "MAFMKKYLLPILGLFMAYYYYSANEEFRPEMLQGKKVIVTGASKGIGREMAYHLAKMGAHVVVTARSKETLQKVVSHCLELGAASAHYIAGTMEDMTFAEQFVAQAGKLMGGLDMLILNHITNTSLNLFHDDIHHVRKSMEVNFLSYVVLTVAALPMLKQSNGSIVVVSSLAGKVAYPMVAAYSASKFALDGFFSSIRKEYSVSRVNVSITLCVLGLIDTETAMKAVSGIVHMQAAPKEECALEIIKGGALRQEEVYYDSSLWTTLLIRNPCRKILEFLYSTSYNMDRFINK", "conditions": "cited from earlier work"}, "Human 11β-HSD1 [3]": {"biological_target": "T2, Human 11β-HSD1", "experiment": "11β-HSD1 assay in intact CHOP cells transfected with human HSD11B1", "type": "cell-based", "description": "An expression plasmid was constructed to express human 11β-HSD1 (HSD11B1) cDNA in pcDNA I expression vector from its original human HSD11B1 vector (pBluescriptSK+).[15]. The Escherichia coli transformants carrying an insert were selected by colony hybridization, and a clone with the insert in the correct orientation relative to the vector T7 promoter was identified by restriction mapping. All transfections were carried out on 80% confluent cultures in 12-well plates. Aliquots of 1 µg HSD11B1 pcDNA I were transfected into mammalian CHOP cells with the FuGENE Transfection Reagent (Roche) according to manufacturer's protocol. Cells were allowed to grow for 24 hours in media containing 10% fetal bovine serum. Then media were removed and cells were harvested for 11β-HSD1 activity assay.\n(§1) 11β-HSD1 reductase activity was performed in intact cells using endogenous cofactor NADPH as described previously. […] 25×10^3 cells were added to each tube to initiate the reaction and the reaction mixture was incubated for up to 2 hrs, during which the reaction is within the linear range. At the end of reaction, the reaction was stopped by adding 2 ml ice-cold ether. The steroids were extracted, and the organic layer was dried under nitrogen. The steroids were separated chromatographically on thin layer plates in chloroform and methanol (90∶10, v/v), and the radioactivity was measured using a scanning radiometer (System AR2000, Bioscan Inc., Washington, DC) as described previously. The percentage conversion of 11DHC to CORT or cortisone to cortisol was calculated by dividing the radioactive counts identified as 11-OH-steroids by the total counts.\n(§2) The IC50 was determined by adding different concentrations of each compound in the 11β-HSD1 or 11β-HSD2 reaction as described. The mode of inhibition was assayed by adding various concentrations of steroid substrates in the presence of an inhibitor as described."}, "Human 11β-HSD2 [4]": {"biological_target": "T1, Human 11β-HSD2", "experiment": "11β-HSD2 assay in human kidney microsomes", "type": "biochemical", "description": "The rat and human kidney microsomes were used for 11β-HSD2 sources. 11β-HSD2 activity was performed in the microsome according to a previously described method. In brief, the assay tubes contained 25 nM substrate CORT (for rat) or cortisol (for human), spiked with 30,000 cpm their respective ^3H-11β-hydroxyl steroid, 0.2 mM NAD+ and 0.1 mM DTT in the PBS buffer. 8 (rat) or 20 (human) µg kidney microsomes were added to each tube to initiate the reaction and the reaction mixture was incubated for up to 3 hrs, during which the reaction is within the linear range. The rest procedure was similar to 11β-HSD1 assay. The percentage conversion of CORT to 11DHC or cortisol to cortisone was calculated by dividing the radioactive counts identified as 11keto-steroids by the total counts.\nas §2"}, "human liver 11β-HSD1": {"biological_target": "T3, human liver 11β-HSD1 (Homo sapiens, UniProt P28845)", "T3 construct": "tissue Gentest (Woburn, MA); host or cells: human liver microsomes", "T3 sequence (P28845 whole entry)": "as above", "experiment": "Mode of inhibition, human liver 11β-HSD1", "type": "biochemical", "conditions": "data not shown", "description": "(§3) The rat testis and liver or human liver microsomes were used for 11β-HSD1 assay. 11β-HSD1 activity was performed in the microsome according to a previously described method. In brief, the assay tubes contained 25 nM substrate 11DHC (for rat) or cortisone (for human), spiked with 30,000 cpm their respective ^3H-11keto-steroid, 0.2 mM NADPH and 5 mM glucose-6-phosphaare in the PBS buffer. 2 µg microsomes were added to each tube to initiate the reaction and the reaction mixture was incubated for up to 2 hrs, during which the reaction is within the linear range. The rest procedure was similar to 11β-HSD1 assay in intact cells.\nas §2\n(§4) Enzyme data were subjected to nonlinear analysis by GraphPad (Version 5, GraphPad Software Inc., San Diego, CA) for IC50. Lineweaver-Burk plot was used for the mode of inhibition. Data were subjected to analysis by one-way ANOVA followed by Tukey's multiple comparisons testing to identify significant differences between groups when three were calculated. Differences were regarded as significant at P<0.05."}, "Rat 11β-HSD1": {"biological_target": "T4, Rat 11β-HSD1 (Rattus norvegicus, UniProt P16232)", "T4 construct": "endogenous in cells; host or cells: primary adult Sprague-Dawley rat Leydig cells", "T4 sequence (P16232 whole entry)": "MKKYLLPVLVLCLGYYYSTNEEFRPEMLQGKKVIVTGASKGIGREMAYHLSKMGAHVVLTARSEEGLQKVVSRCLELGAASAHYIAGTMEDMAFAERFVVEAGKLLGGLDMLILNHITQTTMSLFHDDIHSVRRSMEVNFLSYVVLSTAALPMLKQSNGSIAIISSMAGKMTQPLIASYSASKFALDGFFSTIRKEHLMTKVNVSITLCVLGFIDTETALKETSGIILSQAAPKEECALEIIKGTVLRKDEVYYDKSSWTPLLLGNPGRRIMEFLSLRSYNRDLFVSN", "experiment": "11β-HSD1 assay in intact rat Leydig cells", "type": "cell-based", "conditions": "intact rat Leydig cells", "description": "Rat Leydig cells contain the highest 11β-HSD1 activity in all cell types of rat tissues, and were used for rat 11β-HSD1 enzyme sources. Purified rat Leydig cells were obtained from 90-day-old Sprague-Dawley rats by collagenase digestion of the testes followed by Percoll density centrifugation of the cell suspension, according to the previously described method. […] The purity of cell fractions was evaluated by histochemical staining for 3β-hydroxysteroid dehydrogenase activity with […] etiocholanolone as the steroid substrate.\nas §1, §2"}, "Rat 11β-HSD2": {"biological_target": "T5, Rat 11β-HSD2 (Rattus norvegicus, UniProt P50233)", "T5 construct": "from tissue; host or cells: rat kidney microsomes", "T5 sequence (P50233 1-400)": "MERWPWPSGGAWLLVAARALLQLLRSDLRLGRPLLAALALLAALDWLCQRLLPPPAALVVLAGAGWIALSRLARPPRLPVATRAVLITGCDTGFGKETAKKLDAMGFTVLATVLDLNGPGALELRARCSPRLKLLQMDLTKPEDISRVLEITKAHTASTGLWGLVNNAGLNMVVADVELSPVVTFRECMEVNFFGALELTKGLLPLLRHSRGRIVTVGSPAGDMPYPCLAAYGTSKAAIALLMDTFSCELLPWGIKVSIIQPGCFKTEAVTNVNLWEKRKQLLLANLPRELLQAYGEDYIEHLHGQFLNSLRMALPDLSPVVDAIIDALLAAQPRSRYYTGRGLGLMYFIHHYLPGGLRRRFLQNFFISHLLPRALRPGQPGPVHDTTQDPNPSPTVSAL", "experiment": "11β-HSD2 assay in rat kidney microsomes", "type": "biochemical", "description": "Rats were euthanized by CO2, and livers, testes and kidneys were collected. Rat liver, testis and kidney microsomes were prepared as described previously. In brief, rat liver and kidney were homogenized in […] PBS buffer containing 0.25 M sucrose, and nuclei and large cell debris were removed by centrifugation at 1500× g for 10 min. The post-nuclear supernatants were centrifuged twice at 105,000×g, the resultant microsomal pellets were resuspended. Protein contents were measured by Bio-Rad Dye Reagent Concentrate (Cat.#500-0006). Microsomes were used for measurement of 11β-HSD1 and 11β-HSD2 activities.\nThe rat and human kidney microsomes were used for 11β-HSD2 sources. 11β-HSD2 activity was performed in the microsome according to a previously described method. […] 8 (rat) or 20 (human) µg kidney microsomes were added to each tube to initiate the reaction and the reaction mixture was incubated for up to 3 hrs, during which the reaction is within the linear range. The rest procedure was similar to 11β-HSD1 assay. The percentage conversion of CORT to 11DHC or cortisol to cortisone was calculated by dividing the radioactive counts identified as 11keto-steroids by the total counts.\nas §2"}, "[5]": {"biological_target": "T6, rat liver microsomal 11β-HSD1 (Rattus norvegicus, UniProt P16232)", "T6 construct": "Rat liver, testis and kidney microsomes were prepared as described previously; from tissue; host or cells: rat liver microsomes", "T6 sequence (P16232 whole entry)": "as the sequence (P16232 whole entry) above", "experiment": "Mode of inhibition (Lineweaver-Burk), rat liver microsomal 11β-HSD1", "type": "biochemical", "conditions": "Lineweaver-Burk plot, substrate 11DHC", "description": "as §3, §2, §4"}}, "note": "Entries after “also recorded” stand apart in the source; their conditions may differ. Where two headings read alike, the source gives them in different places."}
{"molecule": "BVT2733", "values": [{"measurement": "Effect on blood glucose level", "setting": "hyperglycemic KKAy mouse", "result": "significantly lowered"}, {"measurement": "IC50", "setting": "mouse 11β-HSD1; mouse enzyme", "result": 96, "unit": "nM"}]}
{"molecule": "C1CCc2nnc(C34CC5CC(CC(C5)C3)C4)n2CC1", "note": "[MK544]", "values": [{"measurement": "IC50", "setting": "mouse 11β-HSD1", "result": 98, "unit": "nM"}, {"measurement": "Selectivity over human 11β-HSD2", "setting": "Human 11β-HSD2 [1]", "result": "> 450", "unit": "fold"}, {"measurement": "Selectivity over mouse 11β-HSD2", "setting": "mouse 11β-HSD2", "result": "> 100", "unit": "fold"}, {"measurement": "IC50", "setting": "Human 11β-HSD1 [2]", "result": 7.8, "unit": "nM"}]}
{"molecule": "O=C(/C=C/c1cccs1)/C=C/c1cccs1", "note": "[compound 6, (1E,4E)-1,5-bis(thiophen-2-yl) penta-1,4-dien-3-one]", "values": [{"measurement": "Human 11β-HSD1 Potency to Curcumin (fold)", "setting": "Human 11β-HSD1 [3]; CHOP cells transfected with human HSD11B1, relative to curcumin", "result": 24.68, "unit": "fold"}, {"measurement": "IC50", "setting": "Human 11β-HSD1 [3]; CHOP cells transfected with human HSD11B1, read-out: Human 11β-HSD1 IC50 (nM) in CHOP cells", "result": 93, "unit": "nM"}, {"measurement": "Inhibition of human 11β-HSD2 at 100 µM", "setting": "Human 11β-HSD2 [4]; 100 µM", "result": "did not inhibit"}, {"measurement": "IC50", "setting": "Human 11β-HSD2 [4]; human kidney microsomes, read-out: IC50 (nM) Human 11β-HSD2", "result": "> 100000", "unit": "nM"}, {"measurement": "Mode of inhibition of human 11β-HSD1", "setting": "human liver 11β-HSD1", "result": "same mode; also recorded: competitive inhibitor"}, {"measurement": "Rat 11β-HSD1 Potency to Curcumin (fold)", "setting": "Rat 11β-HSD1; relative to curcumin", "result": 31.44, "unit": "fold"}, {"measurement": "IC50", "setting": "Rat 11β-HSD1; read-out: Rat 11β-HSD1 IC50 (nM) in Leydig cells", "result": 184, "unit": "nM"}, {"measurement": "Inhibition of rat 11β-HSD2 at 100 µM", "setting": "Rat 11β-HSD2; 100 µM", "result": "did not inhibit"}, {"measurement": "IC50", "setting": "Rat 11β-HSD2; rat kidney microsomes", "result": "> 100000", "unit": "nM"}, {"measurement": "Mode of inhibition of rat 11β-HSD1", "setting": "[5]", "result": "competitive mode; also recorded: competitive inhibitor"}]}
